In patent US7074959B2, “Methods and systems for remediating hydrazine-contaminated equipment and/or surfaces” (New Mexico Highlands University, priority 2002, dated 2006):

Tests used:
[1] = solubility of the hydrazine/2-ketoglutaric acid adduct in water; type: physicochemical; settings: allows separation of most of the adduct by simple filtration
Excerpt: FIG. 3 illustrates a schematic diagram 300 depicting a reaction of 2-ketoglutataric acid, which provides a near quantitative conversion of hydrazine to a 6-oxo-1,4,5,6-tetrahydro-pyridazine-3-carbonic acid, a preferred embodiment of the present invention. In general, the chemical transformation depicted in schematic diagram 300 of FIG. 3 allows for the removal of hydrazine from aqueous solutions generated by the decontamination processes described herein. The reaction with concentrated hydrazine also can provide the desired product with some evolution of heat.

[2] = MSDS listing; cited from earlier work

## O=C1CCC(C(=O)O)=NN1 [6-oxo-1,4,5,6-tetrahydro-pyridazine-3-carbonic acid]
[1]
  solubility in water: low solubility
[2]
  known acute toxicities listed in MSDS: does not list any known acute toxicities
